Assays:
Assay in all cases: Postemergent herbicidal activity, greenhouse
Assay type in all cases: in vivo
[1] = system: BRSNW Brassica napus (winter oilseed rape)
Experimental: (§1) Evaluation of Postemergent Herbicidal Activity. Seeds or nutlets of the desired test plant species were planted in Sun Gro Metro-Mix® 360 planting mixture, which typically has a pH of 6.0 to 6.8 and an organic matter content of about 30 percent, in plastic pots with a surface area of 64 square centimeters (cm^2). When required to ensure good germination and healthy plants, a fungicide treatment and/or other chemical or physical treatment was applied. The plants were grown for 7-21 days (d) in a greenhouse with an approximate 15 hour (h) photoperiod which was maintained at about 23-29° C. during the day and 22-28° C. during the night. Nutrients and water were added on a regular basis and supplemental lighting was provided with overhead metal halide 1000-Watt lamps as necessary. The plants were employed for testing when they reached the first or second true leaf stage.
(§2) A weighed amount, determined by the highest rate to be tested, of each test compound was placed in a 25 milliliter (mL) glass vial and was dissolved in 4 mL of a 97:3 volume per volume (v/v) mixture of acetone and dimethyl sulfoxide (DMSO) to obtain concentrated stock solutions. […] The concentrated stock solutions obtained were diluted with 20 mL of an aqueous mixture containing acetone, water, isopropyl alcohol, DMSO, Atplus 411F crop oil concentrate, and Triton® X-155 surfactant in a 48.5:39:10:1.5:1.0:0.02 v/v ratio to obtain spray solutions containing the highest application rates. Additional application rates were obtained by serial dilution of 12 mL of the high rate solution into a solution containing 2 mL of a 97:3 v/v mixture of acetone and DMSO and 10 mL of an aqueous mixture containing acetone, water, isopropyl alcohol, DMSO, Atplus 411F crop oil concentrate, and Triton X-155 surfactant in a 48.5:39:10:1.5:1.0:0.02 v/v ratio to obtain ½X, ¼X, ⅛X and 1/16X rates of the high rate. Compound requirements are based upon a 12 mL application volume at a rate of 187 liters per hectare (L/ha). Formulated compounds were applied to the plant material with an overhead Mandel track sprayer equipped with 8002E nozzles calibrated to deliver 187 L/ha over an application area of 0.503 square meters (m^2) at a spray height of 18 inches ([…]) above the average plant canopy height. Control plants were sprayed in the same manner with the solvent blank.
(§3) Treatments consisted of the methyl ester of 4-amino-3-chloro-6-(4-chloro-2-fluoro-3-methoxyphenyl)pyridine-2-carboxylic acid (Cmpd 1) as technical grade material and fluazifop-P-butyl (Fusilade® DX), haloxyfop-P-methyl (GALLANT® super), and quizalofop-P-ethyl (Assure® II) alone and in combination. The form of compound of formula (I) and fluazifop-P-butyl, haloxyfop-P-methyl, and quizalofop-P-ethyl were applied on an acid equivalent basis.
(§4) The treated plants and control plants were placed in a greenhouse as described above and watered by subirrigation to prevent wash-off of the test compounds. After 14 d, the condition of the test plants as compared with that of the untreated plants was determined visually and scored on a scale of 0 to 100 percent where 0 corresponds to no injury and 100 corresponds to complete kill.
(§5) Results of testing mixtures in accordance with this disclosure and of the components of the mixtures separately against various common weeds in greenhouse trials are reported in the following tables. The reported values are of percent (%) control or percent (%) injury, visually rated. Colby's equation was used to determine the herbicidal effects expected from the mixtures (Colby, S. R. Calculation of the synergistic and antagonistic response of herbicide combinations. Weeds 1967, 15, 20-22.).
(§6) More specifically, the following equation was used to calculate the expected activity of mixtures containing two active ingredients, A and B:
(§7) A=observed efficacy of active ingredient A at the same concentration as used in the mixture; B=observed efficacy of active ingredient B at the same concentration as used in the mixture. […]

[2] = system: IPOHE Ipomoea hederacea (L.) Jacq. (ivyleaf momingglory)
Experimental: as §1, §2, §3, §4, §5, §6, §7

[3] = system: CIRAR Cirsium arvense (L.) Scop. (Canada thistle)
Experimental: as §1, §2, §3, §4, §5, §6, §7

[4] = system: CHEAL Chenopodium album L. (common lambsquarters)
Experimental: as §1, §2, §3, §4, §5, §6, §7

[5] = system: VIOTR Viola tricolor L. (wild violet)
Experimental: as §1, §2, §3, §4, §5, §6, §7

[6] = system: AMARE Amaranthus retroflexus L. (redroot pigweed)
Experimental: as §1, §2, §3, §4, §5, §6, §7

[7] = system: STEME Stellaria media (L.) Vill. (common chickweed)
Experimental: as §1, §2, §3, §4, §5, §6, §7

Measured: Visual Growth Reduction (%) 14 DAA Obs

CCOC(=O)[C@@H](C)Oc1ccc(Oc2cnc3cc(Cl)ccc3n2)cc1 [Quizalofop-P-ethyl, quizalofop-P-ethyl]
0%: [1]; Quizalofop-P 37.5 g ae/ha | [1]; Quizalofop-P 75 g ae/ha | [1]; Quizalofop-P 150 g ae/ha | [2]; Quizalofop-P 37.5 g ae/ha | [2]; Quizalofop-P 75 g ae/ha | [2]; Quizalofop-P 150 g ae/ha | [3]; Quizalofop-P 37.5 g ae/ha | [3]; Quizalofop-P 75 g ae/ha | [3]; Quizalofop-P 150 g ae/ha | [4]; Quizalofop-P 37.5 g ae/ha | [4]; Quizalofop-P 75 g ae/ha | [4]; Quizalofop-P 150 g ae/ha | [5]; Quizalofop-P 37.5 g ae/ha | [5]; Quizalofop-P 75 g ae/ha | [5]; Quizalofop-P 150 g ae/ha | [6]; Quizalofop-P 37.5 g ae/ha | [6]; Quizalofop-P 75 g ae/ha | [6]; Quizalofop-P 150 g ae/ha | [7]; Quizalofop-P 37.5 g ae/ha | [7]; Quizalofop-P 75 g ae/ha | [7]; Quizalofop-P 150 g ae/ha

From patent US20140213446A1, “HERBICIDAL COMPOSITIONS AND METHODS USING COMBINATIONS OF 4-AMINO-3-CHLORO-6-(4-CHLORO-2-FLUORO-3-METHOXYPHENYL)PYRIDINE-2-CARBOXYLIC ACID OR A DERIVATIVE THEREOF AND AN ARYLOXYPHENOXY PROPIONATE ACCASE INHIBITOR HERBICIDE” (DOW AGROSCIENCES LLC, priority 2013, published 2014)
